In PubChem BioAssay (NCI):
“And” between values parts separate entries of the source, which are not always exact repeats. Equal entries are not always repeated.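 Interpolation was linear, between the two tested concentrations surrounding the appropriate level; five concentrations were tested over 48 hours in 96-well plates. GI50: concentration for 50% inhibition of growth. TGI marks complete inhibition of growth.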

Experiments:
Test in all cases: inhibition of tumour cell growth, NCI panel, 48 h
UACC-257 melanoma = tested on: UACC-257 melanoma
MDA-MB-435 = tested on: MDA-MB-435
LOX IMVI melanoma = tested on: LOX IMVI melanoma
A549 NSCLC = tested on: A549 NSCLC
NCI-H226 lung = tested on: NCI-H226 lung
SF-539 CNS = tested on: SF-539 CNS
HCT-116 colon = tested on: HCT-116 colon
RPMI-8226 leukemia = tested on: RPMI-8226 leukemia
SF-268 CNS = tested on: SF-268 CNS
EKVX NSCLC = tested on: EKVX NSCLC

| Structure (SMILES) | TGI (UACC-257 melanoma) [µM] | TGI (MDA-MB-435) [µM] | TGI (LOX IMVI melanoma) [µM] | TGI (A549 NSCLC) [µM] | TGI (NCI-H226 lung) [µM] | TGI (SF-539 CNS) [µM] | TGI (HCT-116 colon) [µM] | TGI (RPMI-8226 leukemia) [µM] | TGI (SF-268 CNS) [µM] | TGI (EKVX NSCLC) [µM] | GI50 (SF-268 CNS) [µM] | GI50 (EKVX NSCLC) |
| --- | --- | --- | --- | --- | --- | --- | --- | --- | --- | --- | --- | --- |
| COC(=O)C(Cc1ccccc1)NP(=O)(O)OCC1OC(n2cc(F)c(=O)[nH]c2=O)CC1O (stereo not given) | > 100 | > 100 | > 100 | > 100 | > 100 | 63.9 | > 100 | > 100 | > 100 | > 100 |  |  |
| COc1c(O)cc(O)c2c(=O)cc(-c3ccccc3)oc12 | > 100 | > 100 | 68.8 | > 100 | > 100 | > 100 | 78.4 | 37.1 | > 100 | > 100 |  |  |
| C=C(C)C(O)C(O)c1c(OC)ccc2ccc(=O)oc12 (stereo not given) | > 100 | > 100 |  | > 100 | > 100 | > 100 | > 100 | > 100 | > 100 | > 100 |  |  |
| CC1(O)CC(=O)c2c(cc3ccc(-c4c5c(c(O)c6c(O)cccc46)C(=O)CC(C)(O)C5)c(O)c3c2O)C1 (stereo not given) | 1.3 | 1.97 | 5.41 | 11.1 | 2.16 | 2.34 | 3.86 | 2.8 | 1.81 | 4.35 |  |  |
| O=C(O)c1ccn(-c2cccc(-n3ccc(C(=O)O)n3)n2)n1 | > 100 | > 100 | > 100 | > 100 | > 100 | > 100 | > 100 | > 100 | > 100 | > 100 |  |  |
| COc1cc(C(C)c2cc3c(cc2OCCO)OCO3)cc(OC)c1OC (stereo not given) | > 100 |  | > 100 | > 100 | > 100 | 4.81 | > 100 | > 100 | > 100 | > 100 |  |  |
| CCNC(=O)c1cc(/C=C/c2ccc([N+](=O)[O-])o2)nc2ccccc12 | 28.2 | 12.6 | > 100 | > 100 | > 100 | > 100 | > 100 | > 100 | > 100 | > 100 |  |  |
| S=C1SCN(Cc2ccco2)CN1c1ccc(Br)cc1 | 42.6 | 36 | 13 | 54.3 | 69.1 | 36.2 | 42.2 | 35.3 | 40.7 | 64.6 |  |  |
| CCOC(=O)c1cnc2oc3ccc(O)cc3c2c1-c1ccccc1 | > 100 | > 100 | > 100 | > 100 | > 100 | 46.5 | > 100 | > 100 | > 100 | > 100 | 29.7 |  |
| CCOc1cc(C2CC(c3ccc(NS(=O)(=O)c4cc([N+](=O)[O-])ccc4C)cc3)=NN2c2ccc([N+](=O)[O-])cc2[N+](=O)[O-])ccc1O (stereo not given) | 59.5 | > 100 | 44.1 | 28.1 | 24 | 25.5 | 26.1 | > 100 | 43.9 | 22 |  |  |
| C[C@H]1C[C@H]2[C@@H]3C(C)(C)O[C@]4(O)C(=O)[C@]5(O)[C@@H](C)CC[C@H]1[C@]25C(=O)[C@]34C | > 100 | 96.3 | > 100 | > 100 | 98.2 | > 100 | > 100 | 45.8 | > 100 |  |  |  |
| O=c1ccn(CC2(CO)CC(Cc3ccccc3)C2)c(=O)[nH]1 (stereo not given) | > 100 | > 100 | > 100 | > 100 | > 100 | > 100 | > 100 | > 100 | > 100 | > 100 |  |  |
| CC1(C)CC(=O)c2c(nc3ccc4ccccc4c3c2-c2ccc(NC(=O)CCCCCCCCC(=O)Nc3ccc(-c4c5c(nc6ccc7ccccc7c46)CC(C)(C)CC5=O)cc3)cc2)C1 | > 100 | > 100 | > 100 | > 100 | > 100 | > 100 | > 100 | > 100 | > 100 | > 100 |  |  |
| COc1cc2cc[n+]3c(C)c4cc(OC)c(OC)cc4c([O-])c3c2cc1OC | > 100 |  |  | > 100 | > 100 | > 100 | > 100 | > 100 | > 100 | > 100 |  |  |
| CC(=O)Nc1ccc(OC2=CCN(C)CC2)cc1 | > 100 | > 100 | > 100 | > 100 | > 100 |  | > 100 | > 100 | > 100 | > 100 |  |  |
| Cc1nc2c(sc(=S)n2-c2ccccc2)c(=O)[nH]1 | > 100 |  |  | > 100 | > 100 | > 100 | > 100 | > 100 | > 100 |  |  |  |
| CCOC(=O)c1c(N2CCCC2)ncn(Cc2ccccc2)c1=S | > 100 | > 100 | > 100 | > 100 | > 100 | > 100 | > 100 | > 100 | > 100 | > 100 |  |  |
| CCCC(=O)NC(Nc1ccc(S(=O)(=O)Nc2nc(C)cc(C)n2)cc1)(C(F)(F)F)C(F)(F)F | > 100 | > 100 | > 100 | > 100 | > 100 | > 100 | > 100 | > 100 | > 100 | > 100 |  |  |
| OC(CCNCc1ccccc1)c1ccc2ccccc2c1 (stereo not given) | 32.2 | 44.2 | 27.2 | 36.3 | 46.7 | 31.9 | 47.1 | 73.3 | 48 | > 100 |  |  |
| CCOP(=O)(OCC)C1CC(n2cc(C)c(=O)[nH]c2=O)OC1CO (stereo not given) | > 100 |  | > 100 | > 100 | > 100 | > 100 | > 100 | > 100 | > 100 | > 100 |  | 44.1 µM and > 100 µM |
| COc1cc(/C=C2/C[C@H]3[C@@H]4CC=C5C[C@@H](OC(C)=O)CC[C@]5(C)[C@H]4CC[C@]3(C)NC2=O)cc(OC)c1OC | 97.1 | > 100 | > 100 | 59.3 |  | 37.5 | > 100 |  | 76 | 68.3 |  |  |
